From patent publication US20230051563A1, “NON-ELICITED DEDIFFERENTIATED LAVANDULA ANGUSTIFOLIA PLANT CELLS, EXTRACTS THEREOF AND COSMETIC USES THEREOF” (L'OREAL, priority 2019, published 2023)

System: isolated stratum corneum
Experiment: Moisturizing potential on isolated stratum corneum by measurement with a corneometer
Conditions: 5% by weight in 80%/20% water/n-propanol, 10 μL/cm2 on SC, 4 hours, 75% relative humidity, 25° C.
Procedure: A test was performed to evaluate the moisturizing potential of the extracts of the invention formulated in a vehicle (80%/20% water/n-propanol) in an amount of 5% by weight relative to the total weight of the composition. The technique makes it possible to measure the dielectric capacitance of the stratum corneum (SC), which depends on the mean dielectric permittivity value of the tissue. The dielectric permittivity varies greatly with the amount of water contained in the SC. The SC samples are conditioned at 75% relative humidity and at 25° C. before/during the measurements and the treatment. The capacitance measurement is performed using a CorneometerTM (Courage & Khazaka, Germany). […] Using at least two different batches of SC, four to five SC samples are measured per treatment. The variation in the corneometer signal (HCM) after treatment is calculated first for each SC sample: […]0). The mean of the DHCMi(vehicle) variations is then calculated for the control samples (treated with the vehicle): this mean value is subtracted from all the DHCMi(active agent) and DHCMi(positive control) variations to correct for the systematic bias. […]

SMILES: OCC(O)CO [Glycerol, glycerol]
- % norm (corneometer signal variation, vehicle-corrected, normalized to glycerol): 100%
